Results taken from patent US5455222A, “1-substituted-5-thiomethylthiocyanato-1H-tetrazoles, compositions containing them and their use as antimicrobial and marine antifouling agents” (The Dow Chemical Company, priority 1994, dated 1995).
Converted amounts (≈) assume the structure as drawn.

What was measured:
Bacillus subtilis (Bs) = assay: Minimum inhibitory concentration (MIC), bacteria in nutrient agar; type: cell-based, Bacillus subtilis ATCC 8473; settings: 48 hours
Description: (§1) The minimum inhibitory concentration (MIC) for the compounds listed in Table I is determined for 9 bacteria, using nutrient agar, and 7 yeast and fungi, using malt yeast agar. A one percent solution of the test compound is prepared in a mixture of acetone and water.
(§2) Nutrient agar is prepared at pH 6.8, representing a neutral medium, and at pH 8.2, representing an alkaline medium. The nutrient agars are prepared by adding 23 g of nutrient agar to one liter of deionized water. In addition, the alkaline medium is prepared by adjusting a 0.04M solution of N-[tris-(hydroxymethyl)methyl]glycine buffered deionized water with concentrated sodium hydroxide to a pH of 8.5.
(§3) The test tubes containing the agar are cooled in a water bath until the temperature of the agar is 48° C. Then, an appropriate amount of the one percent solution of the test compound is added (except in the controls where no compound is added) to the respective test tubes so that the final concentrations are 500, 250, 100, 50, 25, 10, 5, 2.5, 1.0 and zero parts per million of the test compound in the agar, thus having a known concentration of test compound dispersed therein. The contents of the test tubes are then transferred to respective petri plates. After drying for 24 hours, the petri plates containing nutrient agar are inoculated with bacteria and those containing malt yeast agar are inoculated with yeast and fungi.
(§4) The inoculation with bacteria is accomplished by using the following procedure. Twenty-four hour-cultures of each of the bacteria are prepared by incubating the respective bacteria in tubes containing nutrient broth for 24 hours at 30° C. in a shaker. Dilutions of each of the 24 hour-cultures are made so that nine separate suspensions (one for each of the nine test bacteria) are made, each containing 10^8 colony forming units (CFU) per mL of suspension of a particular bacteria. Aliquots of 0.3 mL of each of the bacterial suspensions are used to fill the individual wells of Steer's Replicator. For each microbial suspension, 0.3 mL was used to fill three wells (i.e., three wells of 0.3 mL each) so that for the nine different bacteria, 27 wells are filled. The Steer's Replicator is then used to inoculate both the neutral and alkaline pH nutrient agar petri plates.
(§5) The inoculated petri plates are incubated at 30° C. for 48 hours and then read to determine if the test compound which is incorporated into the agar prevented growth of the respective bacteria.
(§6) Table II lists the bacteria, yeast and fungi used in the MIC test described above along with their respective American Type Culture Collection (ATCC) identification numbers.
(§7) In Tables III and IV, the MIC values of the compounds described in Table I as compared to the MIC of a standard commercial preservative (with 1-(3-chloroallyl)-3,5,7-triaza-1-azoniaadamantane chloride as the active agent and referred to in Tables III and IV as "STANDARD I") are set forth for the bacteria organisms and yeast/fungi organisms which are listed in Table II.

[1] = test system: Enterobacter aerogenes (Ea); assay: as above; type: cell-based, Enterobacter aerogenes ATCC 13048; settings: Klebsiella aerogenes, 48 hours
Description: as §1, §2, §3, §4, §5, §6, §7

Escherichia coli (Ec) = assay: as above; type: cell-based, Escherichia coli ATCC 11229; settings: 48 hours
Description: as §1, §2, §3, §4, §5, §6, §7

[2] = test system: Klebsiella pneumoniae (Kp); assay: as above; type: cell-based, Klebsiella pneumoniae ATCC 8308; settings: 48 hours
Description: as §1, §2, §3, §4, §5, §6, §7

Proteus vulgaris (Pv) = assay: as above; type: cell-based, Proteus vulgaris ATCC 881; settings: 48 hours
Description: as §1, §2, §3, §4, §5, §6, §7

[3] = test system: Staphylococcus aureus (Sa); assay: as above; type: cell-based, Staphylococcus aureus ATCC 6538; settings: 48 hours
Description: as §1, §2, §3, §4, §5, §6, §7

Candida albicans (Ca) = assay: Minimum inhibitory concentration (MIC), yeast/fungi in malt yeast agar; type: cell-based, Candida albicans ATCC 10231; settings: 30° C., 48 hours for yeast
Description: as §1
(§8) Malt yeast agar is prepared by adding 3 g yeast extract and 45 g malt agar per liter of deionized water. The specific agar is dispensed in 30 mL aliquots into 25×200 mm test tubes, capped and autoclaved for 15 minutes at 115° C.
as §3
(§9) The inoculation with the yeast and fungi is accomplished as follows. Cultures of yeast and fungi are incubated for seven days on malt yeast agar at 30° C. These cultures are used to prepare suspensions by the following procedure. A suspension of each organism is prepared by adding 10 mL of sterile saline and 10 microliters of octylphenoxy polyethoxy ethanol to the agar slant of yeast or fungi. The sterile saline/octylphenoxy polyethoxy ethanol solution is then agitated with a sterile swab to suspend the microorganism grown on the slant. Each resulting suspension is diluted into sterile saline (1 part suspension to 9 parts sterile saline). Aliquots of these dilutions are placed in individual wells of Steer's Replicator and petri plates inoculated as previously described. The petri plates are incubated at 30° C. and read after 48 hours for yeast and 72 hours for fungi.
as §6, §7

[4] = test system: Penicillium chrysogenum (Pc); assay: as above; type: cell-based, Penicillium chrysogenum ATCC 9480; settings: 30° C., 72 hours for fungi
Description: as §1, §8, §3, §9, §6, §7

[5] = test system: Saccharomyces cerevisiae (Sc); assay: as above; type: cell-based, Saccharomyces cerevisiae ATCC 4105; settings: 30° C., 48 hours for yeast
Description: as §1, §8, §3, §9, §6, §7

Trichoderma viride (Tv) = assay: as above; type: cell-based, Trichoderma viride ATCC 8678; settings: 30° C., 72 hours for fungi
Description: as §1, §8, §3, §9, §6, §7

[6] = test system: Aureobasidium pullulan (Ap); assay: as above; type: cell-based, Aureobasidium pullulan ATCC 16622; settings: 30° C., read after 48 hours for yeast and 72 hours for fungi
Description: as §1, §8, §3, §9, §6, §7

Fusarium oxysporum (Fo) = assay: as above; type: cell-based, Fusarium oxysporum ATCC 48112; settings: 30° C., 72 hours for fungi
Description: as §1, §8, §3, §9, §6, §7

Compound | MIC (Bacillus subtilis (Bs); nutrient agar pH 6.8, 30° C.) [µg/mL] | MIC (Bacillus subtilis (Bs); nutrient agar pH 8.2, 30° C.) [µg/mL] | MIC ([1]; nutrient agar pH 6.8, 30° C.) [µg/mL] | MIC ([1]; nutrient agar pH 8.2, 30° C.) [µg/mL] | MIC (Escherichia coli (Ec); nutrient agar pH 6.8, 30° C.) [µg/mL] | MIC (Escherichia coli (Ec); nutrient agar pH 8.2, 30° C.) [µg/mL] | MIC ([2]; nutrient agar pH 6.8, 30° C.) [µg/mL] | MIC ([2]; nutrient agar pH 8.2, 30° C.) [µg/mL] | MIC (Proteus vulgaris (Pv); nutrient agar pH 6.8, 30° C.) [µg/mL] | MIC (Proteus vulgaris (Pv); nutrient agar pH 8.2, 30° C.) [µg/mL] | MIC ([3]; nutrient agar pH 6.8, 30° C.) [µg/mL] | MIC ([3]; nutrient agar pH 8.2, 30° C.) [µg/mL] | MIC (Candida albicans (Ca)) [µg/mL] | MIC [4] [µg/mL] | MIC [5] [µg/mL] | MIC (Trichoderma viride (Tv)) [µg/mL] | MIC [6] [µg/mL] | MIC (Fusarium oxysporum (Fo)) [µg/mL]
N#CSCSc1nnnn1C1CCCCC1 [X, 1-(Cyclohexyl)-5-thiomethylthiocyanato-1H-tetrazole] | < 10 | 25 (≈ 97.9 µM) | 500 (≈ 1960 µM) | 500 (≈ 1960 µM) | 250 (≈ 979 µM) | 500 (≈ 1960 µM) | 250 (≈ 979 µM) | 100 (≈ 392 µM) | 250 (≈ 979 µM) | 250 (≈ 979 µM) | 25 (≈ 97.9 µM) | 50 (≈ 196 µM) | 50 (≈ 196 µM) | < 1 | 5 (≈ 19.6 µM) | 50 (≈ 196 µM) | < 1 | 5 (≈ 19.6 µM)
N#CSCSc1nnnn1-c1cccc(Cl)c1 [II, 1-(3-Chlorophenyl)-5-thiomethylthiocyanato-1H-tetrazole] | 100 (≈ 352 µM) | 250 (≈ 881 µM) | 500 (≈ 1760 µM) | 500 (≈ 1760 µM) | 500 (≈ 1760 µM) | 500 (≈ 1760 µM) | 250 (≈ 881 µM) | 250 (≈ 881 µM) | 100 (≈ 352 µM) | 250 (≈ 881 µM) | 250 (≈ 881 µM) | 100 (≈ 352 µM) | < 10 | < 10 | < 10 | 25 (≈ 88.1 µM) | < 10 | < 10
Cc1cccc(-n2nnnc2SCSC#N)c1 [VI, 1-(3-Methylphenyl)-5-thiomethylthiocyanato-1H-tetrazole] | < 10 | 25 (≈ 94.9 µM) | 500 (≈ 1900 µM) | 500 (≈ 1900 µM) | 500 (≈ 1900 µM) | 500 (≈ 1900 µM) | 250 (≈ 949 µM) | 100 (≈ 380 µM) | 100 (≈ 380 µM) | 100 (≈ 380 µM) | 25 (≈ 94.9 µM) | 50 (≈ 190 µM) | 5 (≈ 19 µM) | < 1 | < 1 | 25 (≈ 94.9 µM) | < 1 | < 1
N#CSCSc1nnnn1-c1ccc(Cl)cc1 [III, 1-(4-Chlorophenyl)-5-thiomethylthiocyanato-1H-tetrazole] | < 10 | 50 (≈ 176 µM) | 25 (≈ 88.1 µM) | 250 (≈ 881 µM) | 25 (≈ 88.1 µM) | 250 (≈ 881 µM) | 25 (≈ 88.1 µM) | 50 (≈ 176 µM) | 25 (≈ 88.1 µM) | 100 (≈ 352 µM) | 25 (≈ 88.1 µM) | 50 (≈ 176 µM) | 5 (≈ 17.6 µM) | < 1 | 2.5 (≈ 8.81 µM) | 5 (≈ 17.6 µM) | 2.5 (≈ 8.81 µM) | 2.5 (≈ 8.81 µM)
